Laboratory results: patent US11578087B2, “Oxaborole esters and uses thereof” (priority 2016, dated 2023)
Like-named read-outs stand apart in the source and are kept apart here.

What was measured:
[1] = system: STIB719/ILRAD560 T. vivax (drug sensitive) strain; assay: Ex vivo Alamar Blue 48 h drug sensitivity assay for T. vivax; assay type: cell-based; conditions: Trypanosoma vivax, ex vivo bloodstream form from mouse, 45 hrs + 3 hrs Resazurin, 37° C., read-out: IC50: I Hypoxanthine Incorporation T. vivax 2 d
[2] = system: IL3000 T. congolense (drug sensitive) strain; assay: In vitro Alamar Blue 72 h drug sensitivity assay for T. congolense; assay type: cell-based, Trypanosoma congolense; conditions: bloodstream form, 69 h + 3 h Resazurin, 34° C., read-out: IC50: I Org. Growth T. congolense 3 d
Summary of the method: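 IC50 values derive from 11-point curves averaged over at least three independent runs, with fluorescence read at 536 nm excitation and 588 nm emission. Resazurin was added for a final 3 h after 69 h compound exposure of bloodstream forms (HMI medium, 20% bovine serum, 34° C, 5% CO2).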

SMILES	IC50 [1]	IC50 ([2]; Trypanosoma congolense, 72 h)	IC50 [2]
COC(=O)[C@H](C)NC(=O)c1ccc2c(c1)B(O)OC2 [Example 6-016, Methyl (1-hydroxy-1,3-dihydrobenzo[c][1,2]oxaborole-6-carbonyl)-L-alaninate]	> 2000 nM	10 to 5000 nM	–
CCCc1c(C(=O)N[C@H](C(=O)OCc2ccc(F)cc2)C(C)C)ccc2c1B(O)OC2 [Example 6-064, 4-fluorobenzyl (1-hydroxy-7-propyl-1,3-dihydrobenzo[c][1,2]oxaborole-6-carbonyl)-L-valinate]	0.51 to 49.9 nM	0.51 to 9.99 nM	–
C[C@H](OC(=O)[C@H](Cc1ccccc1)NC(=O)c1ccc2c(c1)B(O)OC2)c1ccccc1 [Example 6-024, (S)-1-phenylethyl (1-hydroxy-1,3-dihydrobenzo[c][1,2]oxaborole-6-carbonyl)-L-phenylalaninate]	50 to 2000 nM	0.51 to 9.99 nM	–
COC(=O)[C@@H](Cc1ccccc1)NC(=O)c1ccc2c(c1)B(O)OC2 [Example 6-018, Methyl (1-hydroxy-1,3-dihydrobenzo[c][1,2]oxaborole-6-carbonyl)-D-phenylalaninate]	50 to 2000 nM	10 to 5000 nM	–
CC(C)[C@H](NC(=O)c1ccc2c(c1C(F)(F)F)B(O)OC2)C(=O)OCc1ccc(F)cc1 [Example 6-070, 4-Fluorobenzyl (1-hydroxy-7-(trifluoromethyl)-1,3-dihydrobenzo[c][1,2]oxaborole-6-carbonyl)-L-valinate]	50 to 2000 nM	10 to 5000 nM	–
Cc1c(C(=O)N[C@H](C(=O)OCc2ccc(F)c(Cl)c2)C(C)C)ccc2c1B(O)OC2 [Example 6-051, 3-Chloro-4-fluorobenzyl (1-hydroxy-7-methyl-1,3-dihydrobenzo[c][1,2]oxaborole-6-carbonyl)-L-valinate]	< 0.5 nM	< 0.5 nM	–
Cc1c(C(=O)N[C@H](C(=O)OCc2ccc(F)cc2F)C(C)C)ccc2c1B(O)OC2 [Example 6-039, 2,4-Difluorobenzyl (1-hydroxy-7-methyl-1,3-dihydrobenzo[c][1,2]oxaborole-6-carbonyl)-L-valinate]	< 0.5 nM	0.51 to 9.99 nM	–
COC(=O)[C@@H](CCc1ccccc1)NC(=O)c1ccc2c(c1)B(O)OC2 [Example 6-025, Methyl (R)-2-(1-hydroxy-1,3-dihydrobenzo[c][1,2]oxaborole-6-carboxamido)-4-phenylbutanoate]	> 2000 nM	10 to 5000 nM	–
Cc1c(C(=O)N[C@H](C(=O)OCc2cccc(F)c2)C(C)C)ccc2c1B(O)OC2 [Example 6-042, 3-Fluorobenzyl (1-hydroxy-7-methyl-1,3-dihydrobenzo[c][1,2]oxaborole-6-carbonyl)-L-valinate]	< 0.5 nM	0.51 to 9.99 nM	–
CC(C)C[C@H](NC(=O)c1ccc2c(c1)B(O)OC2)C(=O)OCc1ccccc1 [Example 6-006, Benzyl (1-hydroxy-1,3-dihydrobenzo[c][1,2]oxaborole-6-carbonyl)-L-leucinate]	0.51 to 49.9 nM	0.51 to 9.99 nM	–
COC(=O)[C@H](Cc1ccccc1)NC(=O)c1ccc2c(c1)B(O)OC2 [Example 6-026, Methyl (1-hydroxy-1,3-dihydrobenzo[c][1,2]oxaborole-6-carbonyl)-L-phenylalaninate]	50 to 2000 nM	–	0.51 to 9.99 nM
CC(C)[C@H](NC(=O)c1ccc2c(c1)B(O)OC2)C(=O)OCc1ccc(F)cc1F [Example 6-031, 2,4-Difluorobenzyl (1-hydroxy-1,3-dihydrobenzo[c][1,2]oxaborole-6-carbonyl)-L-valinate]	0.51 to 49.9 nM	0.51 to 9.99 nM	–
COC(=O)[C@H](CCc1ccccc1)NC(=O)c1ccc2c(c1)B(O)OC2 [Example 6-027, Methyl (S)-2-(1-hydroxy-1,3-dihydrobenzo[c][1,2]oxaborole-6-carboxamido)-4-phenylbutanoate]	50 to 2000 nM	10 to 5000 nM	–
